Values quoted from earlier work as cited in patent US6683094B2, “Antihistaminic piperidine derivatives and intermediates for the preparation thereof” (Aventis Pharmaceuticals Inc., priority 1998, dated 2004).

Conditions: to two primary metabolites (fexofenadine and an inactive dealkylated metabolite)

first pass metabolism: 99%
Structure (SMILES): CC(C)(C)c1ccc(C(O)CCCN2CCC(C(O)(c3ccccc3)c3ccccc3)CC2)cc1 (stereo not drawn) [Terfenadine, α-[4-(1,1-dimethylethyl)phenyl]-4-(hydroxydiphenylmethyl)-1-piperidinebutanol]
